Data taken from patent US5037957A, “Cysteine proteinase inhibitor” (priority 1987, dated 1991).

How the values were obtained:
streptococcal proteinase = streptococcal proteinase (Streptococcus pyogenes serotype M1, UniProt P0C0J1); details: proteinase 0.0625 mg/ml, 5 min preincubation at 37° C, azocasein 15 min
Experimental: The isolated streptococcal proteinase (15 mg/ml) was diluted to 0.0625 mg/ml with 0.4M phosphate buffer, pH 6.5/4 mM EDTA/4 mM DTT and then activated by incubation at 37° C. for two hours. To a constant volume of the active streptococcal proteinase was thereafter added a constant volume of LVG solutions with increasing LVG concentration. After incubation for 5 min. at 37° C., the substrate azocasein was added and after additional incubation for exactly 15 min. at 37° C., the reaction was stopped by the addition of 20% TCA (trichloroacetic acid). The samples were centrifuged and the absorbancy of the supernatant was read at 366 nm.

trypsin = trypsin (Bos taurus, UniProt P00760); details: 250-fold molar excess, even after incubation for one hour
Experimental: Trypsin activity at pH 7.5 was measured at room temperature (22° C.) on samples in buffer with a final concentration of 25 mN Tris/25 mM CaCl2 The reaction was started by the addition of Bz-DL-Arg-pNA to 2.5 mN final concentration and stopped after 10 minutes by the addition of an equal volume of 50% (v/v) HAc. Released paranitroaniline was meausred spectrophotometrically (Perkin-Elmer 550S) at 405 nm. Absorbancy values for blank (HAc addition before enzyme/substrate addition) were subtracted before evaluation.

papain = target: T1, papain (Carica papaya, UniProt P00784); type: biochemical; details: for apparent rate constant (k'+2, second order) for inactivation of papain: 12-fold molar excess of inhibitor, papain 2×10^-8 M, pH 6.5, 22° C
T1 construct: purchased Sigma type III
T1 sequence (P00784 134-345): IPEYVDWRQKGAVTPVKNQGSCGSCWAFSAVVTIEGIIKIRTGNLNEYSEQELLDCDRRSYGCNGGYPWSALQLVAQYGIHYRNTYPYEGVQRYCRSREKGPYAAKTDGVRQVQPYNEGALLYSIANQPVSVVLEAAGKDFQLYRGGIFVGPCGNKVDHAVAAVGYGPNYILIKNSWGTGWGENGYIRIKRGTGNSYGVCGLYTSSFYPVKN
Experimental: Activity determination of papain was performed according to Barrett et al (ibid.), using Z-Phe-Arg-NHMec as substrate in 0.1M phosphate buffer, pH 6.5/1 mM DTT/1 mM EDTA at room temperature (22° C). All test dilutions were performed in 0.01% Brij 35. The reaction was started by substrate addition (20 μM final concentration) and stopped 10 minutes later by the addition of an equal volume of 0.1M NaCH2 Cl/NaAc, pH 4.3. Released fluorogen product was measured in a Perkin-Elmer MPF-43A spectrofluorimeter (excitation 360 nm, emission 460 nm) against a blank with the same contents as the test solution where chloroacetate had been added before the addition of enzyme/substrate.
The molar active concentration of the papain solution used was determined by titration with E-64 (Barrett et al., ibid.). Stock solutions (1 mM) of LVG and VG were prepared by weighing 10 μmol of the respective peptidyl diazomethyl ketone which was thereafter dissolved in 500 μl acetonitrile (LVG) or 100 μl DMSO (VG), whereupon the volumes were adjusted to 10 ml with water. The exact concentration of peptidyl diazomethyl ketone was experimentally established, such that the reaction proceeded within a reasonable time with regard to the measuring technique used. Enzyme (2×10^-8 M final concentration) and peptidyl diazomethyl ketone were mixed at zero time. 25 μl samples were withdrawn at suitable times (15 s-10 min.) and therafter immediately added to mixtures for enzyme activity determination (see above). The dilution then obtained efficiently stopped continued reaction between enzyme and peptidyl diazomethyl ketone.
Evaluation of experimental data was made in the manner described by Barret et al. (ibid.), where
When i>>e, the following equation applies to the kinetics of inactivation: [formula] where ao is enzyme activity (here measured as amount of released fluorogen product from the substrate Z-Phe-Arg-NHMec) at zero time, and at is enzyme activity at time t.
The apparent rate constant k'+2 (second order) for the inactivation in the scheme
was caculated as kobs /i.
Papain was incubated with LVG and VG in a 12-fold molar excess, and samples were withdrawn at different times for determining residual enzyme activity.

group-A streptococci [1] = details: 0.2 mg LVG intraperitoneally 45 min after lethal dose of group-A streptococci; five mice per group; none of the five controls alive
Experimental: Ten mice were injected intraperitoneally with lethal doses of group-A streptococci. Five of them received after a period of 45 min. 0.2 mg LVG in 0.5 ml 1% dimethyl sulfoxide in physiological sterile saline by a second intraperitoneal injection.

human calpain = human calpain (Homo sapiens, UniProt P07384); details: calpain 2.5 μg/ml, 30 min at 37° C, pH 7.5
Experimental: Isolated human calpain (0.15 mg/ml) in 20 mM Tris buffer, pH 7.5/5 mM CaCl2 /6 mM dithiothreitol was supplied with a substrate (0.4% casein in 0.1 M imidazole buffer, pH 7.5/5 mM CaCl2 /6 mM dithiothreitol) and different amounts of LVG. After incubation for 30 min. at 37° C., the reaction was stopped by the addition of trichloroacetic acid to a final concentration of 2.5%, and the samples were centrifuged, whereupon the absorption of the supernatant at 280 nm was measured.

group-A streptococci [2] = test system: group-A streptococci
Experimental: Group-A streptococci were cultured on blood agar discs as in routine diagnosis for determining sensitivity to antibiotics. The discs applied on the culture gel and used for supplying different types of known antibiotics were this time soaked instead with 20 μl of a solution having an LVG concentration of 1 mM. […] (MIC=minimal inhibiting concentration).

| Substance | LVG concentration sufficient to give total inhibition of streptococcal proteinase activity (streptococcal proteinase) | inhibition of trypsin enzyme activity (trypsin) | apparent rate constant (k'+2, second order) for inactivation of papain (papain) | effectiveness as papain inhibitor relative to VG (papain; LVG versus VG) | mice still alive after one day (group-A streptococci [1]) | final concentration of LVG giving complete inhibition of calpain (human calpain) | effect on bacterial growth when a molar excess of isolated streptococcal proteinase was added to the LVG solution (group-A streptococci [2]; LVG solution premixed with molar excess of streptococcal proteinase before application to cultures) | inhibition of growth of group-A streptococci on blood agar (group-A streptococci [2]; discs soaked with 20 μl of 1 mM LVG, all tested isolates and reference strains) | MIC (minimal inhibiting concentration) for group-A streptococci (group-A streptococci [2]; growth in free solution) | inhibition of papain (papain) | behaviour as substrate for papain (papain; cleaved at the glycine-glycine peptide bond) |
| --- | --- | --- | --- | --- | --- | --- | --- | --- | --- | --- | --- |
| N-benzyloxycarbonyl-leucyl-valyl-glycine diazomethyl ketone [LVG] | 10 µM | no inhibition | 300000 M⁻¹ s⁻¹ | about 100 times | five | 1 µM | no effect on the bacterial growth | effectively inhibited in growth | about 1 μg/l | – | – |
| N-t-butyloxycarbonyl-valyl-glycine diazomethyl ketone [VG] | – | no inhibition | 5000 M⁻¹ s⁻¹ | – | – | – | – | – | – | – | – |
| synthetic peptide corresponding to position 4-21 in cystatin C: synthetic peptide corresponding to position 4-21 in cystatin C (synthesized on request by Ferring AB, Malmo, Sweden) (GKPPRLVGGPMDASVEEE; UniProt P01034 30-47, looked up, fragment) [reference compound] | – | – | – | – | – | – | – | – | – | does not at all inhibit | excellent substrate |
